Our source for the inhibition values is US8673815B2, “Herbicidal composition” (Ishihara Sangyo Kaisha, Ltd., priority 2010, dated 2014).

Assay [1] relates to crabgrass (Digitaria sanguinalis.). The assay is described as follows: Foliar treatment pot test on crabgrass, visual growth inhibition rate (Test Example 1). It counts as in vivo. The settings on record: foliar treatment at 3.8 to 4.0-leaf stage, 28th day after treatment, read-out: Growth inhibition rate (%) of crabgrass, Measured value. From the text:
When the herbicidal activity in a case where two active ingredients are combined, is larger than the simple sum of the respective herbicidal activities of the two active ingredients (the expected activity), it is called a synergistic effect. The activity expected by the combination of two active ingredients can be calculated as follows (Colby S. […] E=α+β-(α×β÷100) where α: growth inhibition rate when treated with x (g/ha) of herbicide X, β: growth inhibition rate when treated with y (g/ha) of herbicide Y, E: growth inhibition rate expected when treated with x (g/ha) of herbicide X and y (g/ha) of herbicide Y. Upland field soil was put into a 1/1,000,000 ha pot, and seeds of crabgrass (Digitaria sanguinalis.) were sown. When the crabgrass reached 3.8 to 4.0-leaf stage, predetermined amounts of water dispersible granules comprising flazasulfuron as an active ingredient (trade name: […] manufactured by Ishihara Sangyo Kaisha, Ltd.) were diluted with water (corresponding to 300 L/ha) containing 0.1 vol % of an agricultural adjuvant (trade name: […] manufactured by NIHON NOHYAKU CO., LTD.) and applied for foliar treatment by a small sprayer. On the 28th day after treatment, the state of growth of the crabgrass was visually observed to determine the growth inhibition rate in accordance with the following evaluation standard. The growth inhibition rate (%) (measured value) and the growth inhibition rate (%) (calculated value) calculated by the Colby's formula are shown in Table 1. Growth inhibition rate (%)=0 (equivalent to the non-treated area) to 100 (complete kill)

Assay [2] has as its system bermuda grass (Cynodon dactylon (L.) Pers.). Nature of the assay: Foliar treatment pot test on bermuda grass, visual growth inhibition rate (Test Example 2). Type of assay: in vivo. The settings on record: in Cynodon dactylon, foliar treatment at 5.0 to 7.0-leaf stage, 21st day after treatment, read-out: Growth inhibition rate (%) of bermuda grass, Measured value. From the text: When the herbicidal activity in a case where two active ingredients are combined, is larger than the simple sum of the respective herbicidal activities of the two active ingredients (the expected activity), it is called a synergistic effect. The activity expected by the combination of two active ingredients can be calculated as follows (Colby S. R., “Weed”, vol. 15, p. 20-22, 1967). E=α+β-(α×β÷100) where α: growth inhibition rate when treated with x (g/ha) of herbicide X, β: growth inhibition rate when treated with y (g/ha) of herbicide Y, E: growth inhibition rate expected when treated with x (g/ha) of herbicide X and y (g/ha) of herbicide Y. Growth inhibition rate (%)=0 (equivalent to the non-treated area) to 100 (complete kill) Upland field soil was put into a 1/1,000,000 ha pot, and seeds of bermuda grass (Cynodon dactylon (L.) Pers.) were sown. When the bermuda grass reached 5.0 to 7.0-leaf stage, predetermined amounts of water dispersible granules comprising flazasulfuron as an active ingredient (trade name: […]) were diluted with water (corresponding to 1,000 L/ha) containing 0.05 vol % of an agricultural adjuvant (trade name: […]) and applied for foliar treatment by a small sprayer. On the 21st day after treatment, the state of growth of the bermuda grass was visually observed to determine the growth inhibition rate. The growth inhibition rate (%) (measured value) and the growth inhibition rate (%) calculated in the same manner as in Test Example 1 are shown in Table 2.

For `COc1cc(OC)nc(NC(=O)NS(=O)(=O)c2ncccc2C(=O)N(C)C)n1` [Nicosulfuron, 2-(4,6-dimethoxypyrimidin-2-ylcarbamoylsulfamoyl)-N,N-dimethylnicotinamide], the inhibition at 15 g/ha in assay [1] (dose 15 g/ha) stood at 7%. In addition, the inhibition at 40 g/ha in assay [1] (dose 40 g/ha) amounted to 22%. Further, the inhibition at 10 g/ha in assay [2] is 8%. For the same compound, in assay [2] (dose 150 g/ha), the inhibition at 150 g/ha worked out at 90%.

For the compound `COc1cc(OC)nc(NC(=O)NS(=O)(=O)c2ncccc2C(F)(F)F)n1` [Flazasulfuron, 1-(4,6-dimethoxypyrimidin-2-yl)-3-(3-trifluoromethyl-2-pyridylsulfonyl)urea], the inhibition at 12.5 g/ha in assay [1] (dose 12.5 g/ha) came out at 87%. The inhibition at 10 g/ha in assay [2] was determined as 0%. Moreover, in assay [2] (dose 200 g/ha), the inhibition at 200 g/ha came to 45%.
